{
  "source": "PubChem BioAssay AID1963827",
  "about": "(Molecular Pharmacology Branch, DTP, NCI, 2024);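 note: spheroids exposed to drugs for 7 days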;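 for viability, T/C: 100% = DMSO vehicle treated spheroids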",
  "test_system": "994946-033-R-J1-PDC complex spheroid viability",
  "test": "Anticancer human tumor 994946-033-R-J1-PDC patient-derived melanoma cell line growth inhibition [POLQ]",
  "details": "for IC50: curve of first compound; for viability, T/C: stronger effect = lower value",
  "outline": "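Patient-derived tumour cells were co-cultured with HUVEC and mesenchymal stem cells as multicellular spheroids at 37 °C. They were treated with POLQ inhibitors (novobiocin, ART-558, RP6685) alone or combined with other agents. Top concentrations were at or near clinical Cmax (otherwise 10 microM; SN-38 at 1 microM), decreasing in half-log steps.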",
  "data": [
    {"smiles": "C#Cc1c(F)ccc2cc(O)cc(-c3ncc4c(N5CC6CCC(C5)N6)nc(OCC56CCCN5CC(F)C6)nc4c3F)c12", "note": "(configuration not stated) + Nc1ccc(C#CCN(C(=O)Cc2ncc(C(F)(F)F)cc2C(F)(F)F)c2ccc(F)cc2)nn1", "values": [
      {"measurement": "IC50", "setting": "second compound 0.0316 µM", "result": 4.28, "unit": "µM"},
      {"measurement": "IC50", "setting": "second compound 0.1 µM", "result": 5.46, "unit": "µM"},
      {"measurement": "IC50", "setting": "second compound 0.316 µM", "result": 5.99, "unit": "µM"},
      {"measurement": "IC50", "setting": "second compound 1 µM", "result": 3.66, "unit": "µM"},
      {"measurement": "IC50", "setting": "second compound 3.16 µM", "result": 5.38, "unit": "µM"},
      {"measurement": "IC50", "setting": "second compound 10 µM", "result": 5.09, "unit": "µM"},
      {"measurement": "viability, T/C", "setting": "second compound 0.0316 µM, first compound 0.0316 µM", "result": 101, "unit": "%"},
      {"measurement": "viability, T/C", "setting": "second compound 0.0316 µM, first compound 0.1 µM", "result": 109, "unit": "%"},
      {"measurement": "viability, T/C", "setting": "second compound 0.0316 µM, first compound 0.316 µM", "result": 91.9, "unit": "%"},
      {"measurement": "viability, T/C", "setting": "second compound 0.0316 µM, first compound 1 µM", "result": 82.5, "unit": "%"},
      {"measurement": "viability, T/C", "setting": "second compound 0.0316 µM, first compound 3.16 µM", "result": 67.2, "unit": "%"},
      {"measurement": "viability, T/C", "setting": "second compound 0.0316 µM, first compound 10 µM", "result": 11.7, "unit": "%"},
      {"measurement": "viability, T/C", "setting": "second compound 0.1 µM, first compound 0.0316 µM", "result": 90.2, "unit": "%"},
      {"measurement": "viability, T/C", "setting": "second compound 0.1 µM, first compound 0.1 µM", "result": 88.9, "unit": "%"},
      {"measurement": "viability, T/C", "setting": "second compound 0.1 µM, first compound 0.316 µM", "result": 97.8, "unit": "%"},
      {"measurement": "viability, T/C", "setting": "second compound 0.1 µM, first compound 1 µM", "result": 74.1, "unit": "%"},
      {"measurement": "viability, T/C", "setting": "second compound 0.1 µM, first compound 3.16 µM", "result": 81, "unit": "%"},
      {"measurement": "viability, T/C", "setting": "second compound 0.1 µM, first compound 10 µM", "result": 19.1, "unit": "%"},
      {"measurement": "viability, T/C", "setting": "second compound 0.316 µM, first compound 0.0316 µM", "result": 100, "unit": "%"},
      {"measurement": "viability, T/C", "setting": "second compound 0.316 µM, first compound 0.1 µM", "result": 84.7, "unit": "%"},
      {"measurement": "viability, T/C", "setting": "second compound 0.316 µM, first compound 0.316 µM", "result": 74.8, "unit": "%"},
      {"measurement": "viability, T/C", "setting": "second compound 0.316 µM, first compound 1 µM", "result": 96.2, "unit": "%"},
      {"measurement": "viability, T/C", "setting": "second compound 0.316 µM, first compound 3.16 µM", "result": 84.1, "unit": "%"},
      {"measurement": "viability, T/C", "setting": "second compound 0.316 µM, first compound 10 µM", "result": 22.3, "unit": "%"},
      {"measurement": "viability, T/C", "setting": "second compound 1 µM, first compound 0.0316 µM", "result": 80.6, "unit": "%"},
      {"measurement": "viability, T/C", "setting": "second compound 1 µM, first compound 0.1 µM", "result": 89.8, "unit": "%"},
      {"measurement": "viability, T/C", "setting": "second compound 1 µM, first compound 0.316 µM", "result": 90.1, "unit": "%"},
      {"measurement": "viability, T/C", "setting": "second compound 1 µM, first compound 1 µM", "result": 66.5, "unit": "%"},
      {"measurement": "viability, T/C", "setting": "second compound 1 µM, first compound 3.16 µM", "result": 59.8, "unit": "%"},
      {"measurement": "viability, T/C", "setting": "second compound 1 µM, first compound 10 µM", "result": 5.38, "unit": "%"},
      {"measurement": "viability, T/C", "setting": "second compound 3.16 µM, first compound 0.0316 µM", "result": 74.4, "unit": "%"},
      {"measurement": "viability, T/C", "setting": "second compound 3.16 µM, first compound 0.1 µM", "result": 85.1, "unit": "%"},
      {"measurement": "viability, T/C", "setting": "second compound 3.16 µM, first compound 0.316 µM", "result": 102, "unit": "%"},
      {"measurement": "viability, T/C", "setting": "second compound 3.16 µM, first compound 1 µM", "result": 79.1, "unit": "%"},
      {"measurement": "viability, T/C", "setting": "second compound 3.16 µM, first compound 3.16 µM", "result": 81.1, "unit": "%"},
      {"measurement": "viability, T/C", "setting": "second compound 3.16 µM, first compound 10 µM", "result": 13.7, "unit": "%"},
      {"measurement": "viability, T/C", "setting": "second compound 10 µM, first compound 0.0316 µM", "result": 80, "unit": "%"},
      {"measurement": "viability, T/C", "setting": "second compound 10 µM, first compound 0.1 µM", "result": 106, "unit": "%"},
      {"measurement": "viability, T/C", "setting": "second compound 10 µM, first compound 0.316 µM", "result": 76.2, "unit": "%"},
      {"measurement": "viability, T/C", "setting": "second compound 10 µM, first compound 1 µM", "result": 112, "unit": "%"},
      {"measurement": "viability, T/C", "setting": "second compound 10 µM, first compound 3.16 µM", "result": 71, "unit": "%"},
      {"measurement": "viability, T/C", "setting": "second compound 10 µM, first compound 10 µM", "result": 20.3, "unit": "%"}
    ]}
  ]
}
